This note sets out measurements from ChEMBL document CHEMBL1156479, “Reversine increases the plasticity of lineage-committed mammalian cells” (Proc Natl Acad Sci U S A, 2007).

Each structure is given as a SMILES string.

The test system of one assay is C2C12. Put plainly: Inhibition of myotube formation in mouse C2C12 myoblasts at 20 nM. The settings on record: C2C12, read-out: INH.
In assay [1] the target is Dual specificity mitogen-activated protein kinase kinase 1 (Mus musculus, UniProt P31938). The experiment in a line: Inhibition of MEK1 in mouse C2C12 by ERK2 phosphorylation assay.
Assay [2] is described as follows: Inhibition of ATPase activity of myosin 2 in mouse C2C12 myoblast assessed as release of inorganic phosphates.

Chain of Dual specificity mitogen-activated protein kinase kinase 1 (P31938 whole entry): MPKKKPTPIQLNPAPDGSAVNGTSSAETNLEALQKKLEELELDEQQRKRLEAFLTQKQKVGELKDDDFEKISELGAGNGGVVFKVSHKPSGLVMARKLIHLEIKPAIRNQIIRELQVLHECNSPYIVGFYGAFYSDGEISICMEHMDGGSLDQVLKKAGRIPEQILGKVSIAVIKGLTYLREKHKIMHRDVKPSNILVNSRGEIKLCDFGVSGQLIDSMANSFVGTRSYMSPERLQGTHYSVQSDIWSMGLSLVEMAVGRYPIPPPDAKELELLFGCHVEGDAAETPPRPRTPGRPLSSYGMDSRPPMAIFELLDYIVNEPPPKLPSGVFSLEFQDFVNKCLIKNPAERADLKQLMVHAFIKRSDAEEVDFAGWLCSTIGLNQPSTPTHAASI

Take `c1nc2c(NC3CCCCC3)nc(Nc3ccc(N4CCOCC4)cc3)nc2[nH]1` [REVERSINE]: the inhibition at 0.02 µM in the assay on C2C12 was greater than 60%. Also, the IC50 in assay [1] is 8 nM; in assay [2] it was 10 nM.
